Measured values from patent US9452225B2, “GLP-1 prodrugs” (Novo Nordisk A/S, priority 2012, dated 2016).
Read-outs that look alike come from different tables or passages of the source. Numbered stars: 1 amine (or outer) side, 2 acyl side, 3 side chain; on linkers, the order of the positions; unused ones are H or OH. Side chains are listed from the residue outwards. Peptide text beside a SMILES is read from it. * marks the point of attachment. Decanoyl(10-(4-HOOC-PhO)) = O=C(O)c1ccc(OCCCCCCCCCC(=O)*)cc1; Lactoyl(3-(imidazol-4-yl)) = O=C([C@@H](O)Cc1c[nH]cn1)*; γGlu = O=C(O)[C@H](CCC(=O)[*:2])N[*:1]; AEEA = NCCOCCOCC(=O)O

Tests used:
human GLP-1 receptor = molecular target: T1, human GLP-1 receptor (Homo sapiens, UniProt P43220); assay: In vitro potency, AlphaScreen cAMP assay on membranes; assay type: biochemical; details: cAMP formation, membranes of BHK467-12A cells
T1 construct: expressed in transfected cells; host or cells: BHK cells, clone FCW467-12A (parent line BHKTS13), membranes
T1 sequence (P43220 24-463): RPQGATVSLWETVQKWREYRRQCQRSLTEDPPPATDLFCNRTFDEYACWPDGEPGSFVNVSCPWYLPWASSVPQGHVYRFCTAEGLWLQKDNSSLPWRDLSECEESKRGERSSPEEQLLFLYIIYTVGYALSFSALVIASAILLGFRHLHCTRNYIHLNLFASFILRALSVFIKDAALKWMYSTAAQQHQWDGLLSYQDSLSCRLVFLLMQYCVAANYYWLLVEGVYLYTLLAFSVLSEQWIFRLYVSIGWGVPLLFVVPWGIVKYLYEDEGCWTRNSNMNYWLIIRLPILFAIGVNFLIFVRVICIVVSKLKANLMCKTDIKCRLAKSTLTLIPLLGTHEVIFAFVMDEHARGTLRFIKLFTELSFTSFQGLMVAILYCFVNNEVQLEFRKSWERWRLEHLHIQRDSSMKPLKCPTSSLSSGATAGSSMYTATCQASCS
Method: The purpose of this example is to test the activity, or potency, in vitro of, for example, the GLP-1 parent drugs of the prodrugs of the invention.
Purified plasma membranes from a stable transfected cell line, BHK467-12A (tk-ts13), expressing the human GLP-1 receptor were stimulated with the GLP-1 drug in question, and the potency of cAMP production was measured using the AlphaScreen™ cAMP Assay Kit from Perkin Elmer Life Sciences. The basic principle of The AlphaScreen Assay is a competition between endogenous cAMP and exogenously added biotin-cAMP. The capture of cAMP is achieved by using a specific antibody conjugated to acceptor beads.
A stable transfected cell line and a high expressing clone were selected for screening. The cells were grown at 5% CO2 in DMEM, 10% FCS, 1% Pen/Strep (Penicillin/Streptomycin) and preferably 0.5 (alternatively 1.0 mg/ml) of the selection marker G418.
Cells at approximate 80% confluence were washed twice with PBS and harvested with Versene (aqueous solution of the tetrasodium salt of ethylenediaminetetraacetic acid), centrifuged 5 min at 1000 rpm and the supernatant removed. The additional steps were all made on ice. The cell pellet was homogenised by the Ultrathurax for 20-30 s in 10 ml of Buffer 1 (20 mM Na-HEPES, 10 mM EDTA, pH=7.4), centrifuged 15 min at 20,000 rpm and the pellet resuspended in 10 ml of Buffer 2 (20 mM Na-HEPES, 0.1 mM EDTA, pH=7.4). The suspension was homogenised for 20-30 s and centrifuged 15 min at 20,000 rpm. Suspension in Buffer 2, homogenisation and centrifugation was repeated once and the membranes were resuspended in Buffer 2. The protein concentration was determined and the membranes stored at −80° C. until use.
The assay was performed in flat-bottom 96-well plates (Costar cat. no: 3693). The final volume per well was 50 μl.
AlphaScreen cAMP Assay Kit from Perkin Elmer Life Sciences (cat. No: 6760625M); containing Anti-cAMP Acceptor beads (10 U/μl), Streptavidin Donor beads (10 U/μl) and Biotinylated-cAMP (133 U/μl). […]

[1] = molecular target: T2, Dipeptidyl peptidase-4 (DPP-IV) (Homo sapiens, UniProt P27487); assay: Resistance to DPP-IV degradation; assay type: in vitro ADME; details: for half-life: recombinant dipeptidyl peptidase-4 (DPP-IV), pH 7.4, incubation with DPP-IV, 37° C.; for In (concentration) of parent GLP-1 peptide drug: DPP-IV incubation 37° C.
T2 construct: purchased R&D Systems 1180-SE
T2 sequence (P27487 29-766 limits assumed): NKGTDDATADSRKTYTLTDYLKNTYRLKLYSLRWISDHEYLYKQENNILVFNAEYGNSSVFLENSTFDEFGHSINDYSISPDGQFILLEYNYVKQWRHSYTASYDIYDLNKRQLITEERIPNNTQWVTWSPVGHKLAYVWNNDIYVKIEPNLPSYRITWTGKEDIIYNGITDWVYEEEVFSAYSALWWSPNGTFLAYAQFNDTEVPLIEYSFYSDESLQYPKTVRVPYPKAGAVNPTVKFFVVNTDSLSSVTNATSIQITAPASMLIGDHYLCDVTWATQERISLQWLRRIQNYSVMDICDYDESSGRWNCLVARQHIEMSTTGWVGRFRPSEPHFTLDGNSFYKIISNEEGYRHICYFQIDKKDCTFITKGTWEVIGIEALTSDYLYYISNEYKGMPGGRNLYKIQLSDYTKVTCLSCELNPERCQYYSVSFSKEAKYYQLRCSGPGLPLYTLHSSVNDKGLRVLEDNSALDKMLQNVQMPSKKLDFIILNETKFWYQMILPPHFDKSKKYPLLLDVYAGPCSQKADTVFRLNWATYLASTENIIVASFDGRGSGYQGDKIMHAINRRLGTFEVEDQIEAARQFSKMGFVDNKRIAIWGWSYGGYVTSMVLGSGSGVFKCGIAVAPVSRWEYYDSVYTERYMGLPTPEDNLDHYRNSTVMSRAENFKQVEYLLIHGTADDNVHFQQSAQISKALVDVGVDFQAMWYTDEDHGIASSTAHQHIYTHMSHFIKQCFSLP
Method: The purpose of this experiment is to determine the degradation by Dipeptidyl peptidase-4 (DPP-IV) of the parent drugs of the prodrugs of the invention.
The stability of the parent GLP-1 drug of Example B2.1 was tested as described below.
HEPES Buffer (50 mM HEPES Buffer with 0.005% Tween20, pH 7.4)
10 ml 1 M HEPES+100 μl 10% Tween20 adjusted to pH 7.4 and diluted with MilliQ water ad 200 mL
1.0 mM in HEPES buffer 0.1% BSA (Sigma cat. no. A9418)
1.0 mM in hepes buffer pH 7.4
DPP-IV was Recombinant Dipeptidyl Peptidase, R&D Systems, cat no. 1180-SE
50 μl of DPP-IV (0.2 mg/mL), 25 mM MES, 0.7 M NaCl, pH 5.0
Add 200 μl 25 mM TRIS pH 8.0 to Stock vial (DPP-IV concentration 40 μg/mL). Just before use: 210 μl (40 μg/ml) is added 210 μl 50 mM HEPES (DPP-IV concentration 20 μg/mL)
Minimum 30 min, 37° C. with 600 μl 0.1% OVAlbumin. Then left overnight at 4° C. and washed times with 50 mM HEPES.
Minimum 150 min with HEPES buffer at 37° C.
The reactions were terminated by moving 25 μl of the sample into 150 μl cooled 1% TFA in EtOH. Samples were collected in a v-shaped 96-well plate (polypropylene, Costar 3957), (Cat no. cci-3957)). Samples were sealed and kept on ice until analyses.
Samples were diluted 5 times in 50% acetonitrile (1% formic acid) (20 μL+80 μL) and analysed with UPLC-MS.
The amounts of parent GLP-1 drug and DPP-IV cleaved drug were measured from the total ion counts and T½ was determined from a linear fit to the curve of ln (% parent GLP-1 drug) (Y) as a function of time (t), as follows: Y(t)=÷αt+k Math 3 T½=ln 2/α Math 4 T½ (÷BSA): 3466 min T½ (+0.001% BSA): 2311 min

| Structure (SMILES) | EC50 (human GLP-1 receptor) | half-life ([1]; +0.001% BSA, read-out: T½ (+0.001% BSA)) | half-life ([1]; without BSA, read-out: T½ (÷BSA)) | In (concentration) of parent GLP-1 peptide drug ([1]; with BSA, time 1.0 minutes) | In (concentration) of parent GLP-1 peptide drug ([1]; with BSA, time 32 minutes) | In (concentration) of parent GLP-1 peptide drug ([1]; with BSA, time 60 minutes) | In (concentration) of parent GLP-1 peptide drug ([1]; with BSA, time 120 minutes) | In (concentration) of parent GLP-1 peptide drug ([1]; with BSA, time 183 minutes) | In (concentration) of parent GLP-1 peptide drug ([1]; with BSA, time 1440 minutes) | In (concentration) of parent GLP-1 peptide drug ([1]; without BSA, time 1.0 minutes) | In (concentration) of parent GLP-1 peptide drug ([1]; without BSA, time 32 minutes) | In (concentration) of parent GLP-1 peptide drug ([1]; without BSA, time 60 minutes) | In (concentration) of parent GLP-1 peptide drug ([1]; without BSA, time 120 minutes) | In (concentration) of parent GLP-1 peptide drug ([1]; without BSA, time 183 minutes) | In (concentration) of parent GLP-1 peptide drug ([1]; without BSA, time 1440 minutes) |
| --- | --- | --- | --- | --- | --- | --- | --- | --- | --- | --- | --- | --- | --- | --- | --- |
| CC[C@H](C)[C@H](NC(=O)[C@H](Cc1ccccc1)NC(=O)[C@H](CCC(=O)O)NC(=O)[C@H](CCCNC(=N)N)NC(=O)[C@@H](NC(=O)[C@H](C)NC(=O)[C@H](CCC(N)=O)NC(=O)[C@H](CCC(=O)O)NC(=O)[C@H](CCC(=O)O)NC(=O)[C@H](CC(C)C)NC(=O)[C@H](Cc1ccc(O)cc1)NC(=O)[C@H](CCCCNC(=O)COCCOCCNC(=O)COCCOCCNC(=O)CC[C@H](NC(=O)CCCCCCCCCOc1ccc(C(=O)O)cc1)C(=O)O)NC(=O)[C@H](CO)NC(=O)[C@@H](NC(=O)[C@H](CC(=O)O)NC(=O)[C@H](CO)NC(=O)[C@@H](NC(=O)[C@H](Cc1ccccc1)NC(=O)[C@@H](NC(=O)CNC(=O)[C@H](CCC(=O)O)NC(=O)[C@H](C)NC(=O)[C@@H](O)Cc1c[nH]cn1)[C@@H](C)O)[C@@H](C)O)C(C)C)C(C)C)C(=O)N[C@@H](C)C(=O)N[C@@H](CCCCNC(=O)COCCOCCNC(=O)COCCOCCNC(=O)CC[C@H](NC(=O)CCCCCCCCCOc1ccc(C(=O)O)cc1)C(=O)O)C(=O)N[C@@H](CC(C)C)C(=O)N[C@H](C(=O)N[C@@H](CCCNC(=N)N)C(=O)NCC(=O)N[C@@H](CCCNC(=N)N)C(=O)NCC(=O)O)C(C)C [Example B2.1] ({Lactoyl(3-(imidazol-4-yl))}-AEGTFTSDVSK([AEEA-AEEA-γGlu-Decanoyl(10-(4-HOOC-PhO))])YLEEQAVREFIAK([AEEA-AEEA-γGlu-Decanoyl(10-(4-HOOC-PhO))])LVRGRG-OH) | 100 pM | 38.5 h | 57.8 h | 4.61 | 4.61 | 4.58 | 4.40 | 4.58 | 4.47 | 4.61 | 4.59 | 4.63 | 4.50 | 4.64 | 4.45 |
| CC[C@H](C)[C@H](NC(=O)[C@H](Cc1ccccc1)NC(=O)[C@H](CCC(=O)O)NC(=O)[C@H](CCCCNC(=O)COCCOCCNC(=O)COCCOCCNC(=O)CC[C@H](NC(=O)CCCCCCCCCOc1ccc(C(=O)O)cc1)C(=O)O)NC(=O)[C@H](C)NC(=O)[C@H](C)NC(=O)[C@H](CCC(N)=O)NC(=O)[C@H](CCC(=O)O)NC(=O)[C@H](CCC(=O)O)NC(=O)[C@H](CC(C)C)NC(=O)[C@H](Cc1ccc(O)cc1)NC(=O)[C@H](CCCCNC(=O)COCCOCCNC(=O)COCCOCCNC(=O)CC[C@H](NC(=O)CCCCCCCCCOc1ccc(C(=O)O)cc1)C(=O)O)NC(=O)[C@H](CO)NC(=O)[C@@H](NC(=O)[C@H](CC(=O)O)NC(=O)[C@H](CO)NC(=O)[C@@H](NC(=O)[C@H](Cc1ccccc1)NC(=O)[C@@H](NC(=O)CNC(=O)[C@H](CCC(=O)O)NC(=O)[C@H](C)NC(=O)[C@@H](O)Cc1c[nH]cn1)[C@@H](C)O)[C@@H](C)O)C(C)C)C(=O)N[C@@H](C)C(=O)N[C@@H](Cc1c[nH]c2ccccc12)C(=O)N[C@@H](CC(C)C)C(=O)N[C@H](C(=O)N[C@@H](CCC(N)=O)C(=O)NCC(=O)N[C@@H](CCCNC(=N)N)C(=O)NCC(=O)O)C(C)C [Example B2.3] ({Lactoyl(3-(imidazol-4-yl))}-AEGTFTSDVSK([AEEA-AEEA-γGlu-Decanoyl(10-(4-HOOC-PhO))])YLEEQAAK([AEEA-AEEA-γGlu-Decanoyl(10-(4-HOOC-PhO))])EFIAWLVQGRG-OH; C-terminus assumed) | 1300 pM |  |  |  |  |  |  |  |  |  |  |  |  |  |  |
